Reference: PubChem BioAssay (NCI)
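Values below derive from 48-hour exposures of cells grown in 96-well plates, with endpoints linearly interpolated between the two concentrations bracketing the appropriate inhibition level. GI50 marks 50% less growth. TGI: concentration producing complete growth inhibition.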

Tests used:
Experiment in all cases: NCI anticancer screen, dose series, 48 h
A498 renal = test system: A498 renal
SK-MEL-5 melanoma = test system: SK-MEL-5 melanoma
SK-OV-3 ovarian = test system: SK-OV-3 ovarian
M14 melanoma = test system: M14 melanoma
OVCAR-4 ovarian = test system: OVCAR-4 ovarian
OVCAR-8 ovarian = test system: OVCAR-8 ovarian
OVCAR-5 ovarian = test system: OVCAR-5 ovarian
MOLT-4 leukemia = test system: MOLT-4 leukemia
SF-295 CNS = test system: SF-295 CNS
HS 578T breast = test system: HS 578T breast

SMILES | GI50 (A498 renal) | TGI (A498 renal) | GI50 (SK-MEL-5 melanoma) | TGI (SK-MEL-5 melanoma) | GI50 (SK-OV-3 ovarian) | TGI (SK-OV-3 ovarian) | GI50 (M14 melanoma) | TGI (M14 melanoma) | GI50 (OVCAR-4 ovarian) | TGI (OVCAR-4 ovarian) | GI50 (OVCAR-8 ovarian) | TGI (OVCAR-8 ovarian) | GI50 (OVCAR-5 ovarian) | TGI (OVCAR-5 ovarian) | GI50 (MOLT-4 leukemia) | TGI (MOLT-4 leukemia) | TGI (SF-295 CNS) | TGI (HS 578T breast) | GI50 (SF-295 CNS) | GI50 (HS 578T breast)
CC(=O)[CH-]C(=O)c1ccccc1.CC(=O)[CH-]C(=O)c1ccccc1.C[C@]12CCC(=O)C=C1CC[C@@H]1C2CC[C@@]2(C)C1CC[C@@H]2[O-].C[C@]12CCC(=O)C=C1CC[C@@H]1C2CC[C@@]2(C)C1CC[C@@H]2[O-].Cl.[Ti+4] (stereo partly drawn) | 16.5 µM | 30.8 µM | 11.3 µM | 32 µM | 27 µM | 56.9 µM | 15.9 µM | 41.8 µM | 23.4 µM | > 100 µM | 22.6 µM | 93.6 µM | 11.8 µM | 55.8 µM | 35.3 µM | > 100 µM | – | – | – | –
Cc1ccccc1-n1c2nc(=O)n(C)c(=O)c-2nc2ccccc21 | – | 79.1 µM | – | 23.1 µM | – | > 100 µM | – | 25.4 µM | – | 26.6 µM | – | 33.6 µM | – | 34.9 µM | – | 39.7 µM | 27.5 µM | – | – | –
NCOC(=O)Cc1ccc(Br)cc1 | – | > 100 µM | – | > 100 µM | – | > 100 µM | – | > 100 µM | – | – | – | > 100 µM | – | > 100 µM | – | > 100 µM | > 100 µM | > 100 µM | – | –
Cc1ccc(NC(=O)/C(Cl)=C(/Cl)C(=O)O)cc1 | – | > 100 µM | – | 55.2 µM | – | 35.8 µM | – | 28.7 µM | – | 33.1 µM | – | – | – | 37.6 µM | – | 43.5 µM | 96.8 µM | – | – | –
NCCNCc1c2ccccc2c(CNCCN)c2ccccc12 | – | 75.3 µM | – | 90.3 µM | – | – | – | 35.2 µM | – | – | – | 60.3 µM | – | 97.5 µM | – | 30.9 µM | 82.8 µM | – | – | –
O=C1CCSC2=C1SCc1sccc12 | – | – | – | > 100 µM | – | > 100 µM | – | > 100 µM | – | > 100 µM | – | > 100 µM | – | > 100 µM | – | > 100 µM | > 100 µM | – | – | –
CN1CCN(C)C12C=CC=CC21CC1 | – | > 100 µM | – | > 100 µM | – | > 100 µM | – | > 100 µM | – | > 100 µM | – | > 100 µM | – | > 100 µM | – | > 100 µM | > 100 µM | – | – | –
CCNC(=O)O/N=C1\CCC2[C@@H]3CC=C4C[C@@H](OC5CCCCO5)CC[C@]4(C)C3CC[C@]12C (stereo partly drawn) | – | > 100 µM | – | > 100 µM | – | 17.3 µM | – | – | – | – | – | 18.2 µM | – | 13 µM | – | 3.87 µM | 7.11 µM | – | – | –
CC(C)(C)CC(N)=O | – | > 100 µM | – | > 100 µM | – | > 100 µM | – | > 100 µM | – | > 100 µM | – | > 100 µM | – | > 100 µM | – | – | > 100 µM | > 100 µM | – | –
CC1(c2ccccc2)CC(c2cccc([N+](=O)[O-])c2)=NO1 (stereo not drawn) | – | > 100 µM | – | > 100 µM | – | > 100 µM | – | > 100 µM | – | > 100 µM | – | > 100 µM | – | > 100 µM | – | > 100 µM | > 100 µM | – | – | –
Cn1c(NCC(O)CN2CCCC2)cc(=O)n(C)c1=O (stereo not drawn) | > 100 µM | > 100 µM | > 100 µM | > 100 µM | > 100 µM | > 100 µM | – | – | > 100 µM | > 100 µM | > 100 µM | > 100 µM | > 100 µM | > 100 µM | > 100 µM | > 100 µM | > 100 µM | > 100 µM | > 100 µM | > 100 µM
Clc1ccc(-c2cc(-c3ccccc3)nc(NCCNc3ccnc4cc(Cl)ccc34)n2)cc1 | 1.64 µM | 3.31 µM | 1.74 µM | 3.2 µM | 1.71 µM | 3.29 µM | – | – | 1.79 µM | 3.83 µM | 1.91 µM | 4.1 µM | 1.67 µM | 3.06 µM | 1.89 µM | 4.19 µM | 3.52 µM | 4.19 µM | 1.8 µM | 1.88 µM
CC#CC1C2CCCC1(CSc1ccccc1)NC(=O)O2 (stereo not drawn) | – | > 100 µM | – | > 100 µM | – | > 100 µM | – | > 100 µM | – | > 100 µM | – | > 100 µM | – | > 100 µM | – | > 100 µM | > 100 µM | – | – | –
CC1=CC(N2C(=O)C(C)=CC2O)NC1=O (stereo not drawn) | – | – | – | – | – | – | – | > 100 µM | – | > 100 µM | – | > 100 µM | – | > 100 µM | – | – | > 100 µM | – | – | –
Clc1ccc(OCc2nnc3n2N=C(c2ccc(Cl)cc2Cl)CS3)cc1 | – | – | 16.4 µM | 31.9 µM | 42.8 µM | > 100 µM | 16.4 µM | 36.3 µM | 23.7 µM | 79 µM | 25.4 µM | 52.7 µM | 22.1 µM | 81 µM | 32.4 µM | > 100 µM | 44.2 µM | 71 µM | 13.7 µM | 29.1 µM
COC1=CC(c2ccc[nH]2)=N/C1=C\c1[nH]c(C)c(C(=O)CCCCC(=O)Oc2ccc3c(c2)CCC2C3CC[C@]3(C)[C@@H](O)CC[C@@H]23)c1C (stereo partly drawn) | > 100 µM | > 100 µM | 3.63 µM | > 100 µM | > 100 µM | > 100 µM | 4.78 µM | > 100 µM | 9.44 µM | > 100 µM | > 100 µM | > 100 µM | > 100 µM | > 100 µM | 5.02 µM | > 100 µM | > 100 µM | – | > 100 µM | –
c1ccc2c(c1)N=C(c1cccc3ccccc13)CC(c1ccc3c(c1)OCO3)S2 (stereo not drawn) | – | > 100 µM | – | > 100 µM | – | > 100 µM | – | > 100 µM | – | > 100 µM | – | > 100 µM | – | > 100 µM | – | > 100 µM | > 100 µM | – | – | –
C=C(C(=C)P(=S)(c1ccccc1)c1ccccc1)P(=S)(c1ccccc1)c1ccccc1 | – | > 100 µM | – | > 100 µM | – | > 100 µM | – | > 100 µM | – | > 100 µM | – | > 100 µM | – | > 100 µM | – | > 100 µM | > 100 µM | – | – | –
COc1ccc(Nc2cc(C)nc(NCCCNc3ccnc4cc(Cl)ccc34)n2)cc1 | 1.49 µM | 3.39 µM | 1.4 µM | 2.76 µM | 1.67 µM | 3.2 µM | – | – | 1.44 µM | 4.86 µM | 2.42 µM | 6.03 µM | 2.35 µM | 6.69 µM | 2.95 µM | > 100 µM | 2.73 µM | 4.39 µM | 1.34 µM | 1.8 µM
